Results from patent US20110190127A1, “NOVEL HERBICIDES” (SYNGENTA CROP PROTECTION, INC., priority 2008, published 2011).

Assays:
Assay type in all cases: in vivo
[1] = tested on: Setaria faberi (SETFA); experiment: Post-emergence herbicidal activity, glasshouse pot test; settings: Rate 500 g/ha; sprayed after 10 days cultivation, evaluated 15 days later; 100=total damage to plant, 0=no damage to plant
Procedure: (§1) Monocotyledonous and dicotyledonous test plants were sown in standard soil in pots. After cultivation for one day (pre-emergence) or after 10 days cultivation (post-emergence) under controlled conditions in a glasshouse, the plants were sprayed with an aqueous spray solution derived from the formulation of the technical active ingredient in 0.6 ml acetone and 45 ml formulation solution containing 10.6% Emulsogen EL (Registry number 61791-12-6), 42.2% N-methyl pyrrolidone, 42.2% dipropylene glycol monomethyl ether (Registry number 34590-94-8) and 0.2% X-77 (Registry number 11097-66-8). The test plants were then grown in a greenhouse under optimum conditions until, 15 days later for post-emergence and 20 days for pre-emergence, the test was evaluated (100=total damage to plant; 0=no damage to plant). Test Plants: Alopecurus myosuroides (ALOMY), Avena fatua (AVEFA), Lolium perenne (LOLPE), Setaria faberi (SETFA), Digitaria sanguinalis (DIGSA), Echinochloa crus-galli (ECHCG)

[2] = tested on: Avena fatua (AVEFA); experiment: as above; settings: Rate 500 g/ha; sprayed after 10 days cultivation, evaluated 15 days later; 100=total damage to plant, 0=no damage to plant
Procedure: as §1

[3] = tested on: Alopecurus myosuroides (ALOMY); experiment: as above; settings: Rate 500 g/ha; sprayed after 10 days cultivation, evaluated 15 days later; 100=total damage to plant, 0=no damage to plant
Procedure: as §1

[4] = tested on: Echinochloa crus-galli (ECHCG); experiment: as above; settings: Rate 500 g/ha; sprayed after 10 days cultivation, evaluated 15 days later; 100=total damage to plant, 0=no damage to plant
Procedure: as §1

[5] = tested on: Digitaria sanguinalis (DIGSA); experiment: as above; settings: Rate 500 g/ha; sprayed after 10 days cultivation, evaluated 15 days later; 100=total damage to plant, 0=no damage to plant
Procedure: as §1

[6] = tested on: Lolium perenne (LOLPE); experiment: as above; settings: Rate 500 g/ha; sprayed after 10 days cultivation, evaluated 15 days later; 100=total damage to plant, 0=no damage to plant
Procedure: as §1

[7] = tested on: Setaria faberi (SETFA); experiment: Pre-emergence herbicidal activity, glasshouse pot test; settings: Rate 500 g/ha; sprayed after one day cultivation, evaluated 20 days later; 100=total damage to plant, 0=no damage to plant
Procedure: as §1

[8] = tested on: Avena fatua (AVEFA); experiment: as above; settings: Rate 500 g/ha; sprayed after one day cultivation, evaluated 20 days later; 100=total damage to plant, 0=no damage to plant
Procedure: as §1

[9] = tested on: Alopecurus myosuroides (ALOMY); experiment: as above; settings: Rate 500 g/ha; sprayed after one day cultivation, evaluated 20 days later; 100=total damage to plant, 0=no damage to plant
Procedure: as §1

[10] = tested on: Echinochloa crus-galli (ECHCG); experiment: as above; settings: Rate 500 g/ha; sprayed after one day cultivation, evaluated 20 days later; 100=total damage to plant, 0=no damage to plant
Procedure: as §1

[11] = tested on: Digitaria sanguinalis (DIGSA); experiment: as above; settings: Rate 500 g/ha; sprayed after one day cultivation, evaluated 20 days later; 100=total damage to plant, 0=no damage to plant
Procedure: as §1

[12] = tested on: Lolium perenne (LOLPE); experiment: as above; settings: Rate 500 g/ha; sprayed after one day cultivation, evaluated 20 days later; 100=total damage to plant, 0=no damage to plant
Procedure: as §1

Row | SMILES | Post-Emergence Activity SETFA [1] | Post-Emergence Activity AVEFA [2] | Post-Emergence Activity ALOMY [3] | Post-Emergence Activity ECHCG [4] | Post-Emergence Activity DIGSA [5] | Post-Emergence Activity LOLPE [6] | Pre-Emergence Activity SETFA [7] | Pre-Emergence Activity AVEFA [8] | Pre-Emergence Activity ALOMY [9] | Pre-Emergence Activity ECHCG [10] | Pre-Emergence Activity DIGSA [11] | Pre-Emergence Activity LOLPE [12]
1 | CCc1ccc(-c2ccc(Cl)cc2Cl)cc1C1=C(Cl)C(C)(C)OC(C)(C)C1=O [Compound A1] | 60 | 50 | 40 | 100 | 100 | 60 | 0 | 0 | 10 | 0 | 70 | 20
2 | CCc1ccc(-c2ccc(Cl)cc2Cl)cc1C1=C(SC)C(C)(C)OC(C)(C)C1=O [Compound A2] | 10 | 0 | 0 | 20 | 0 | 0 | 10 | 0 | 0 | 20 | 20 | 20
